Where two headings read alike, the source gives them in different places.
Columns and labels:
[1] = test system: patients with relapsed or refractory PTCL; conditions: cited from earlier work; for ORR / CR / DOR: relapsed/refractory PTCL; for ORR: brentuximab only anaplastic large cell lymphoma
Primary CLL cells = Primary CLL cells with IL-4/CD40L, immunoblotting and annexin V/PI viability; assay type: cell-based, human; conditions: for IL-4/CD40L induced Mcl-1 and Bcl-XL expression: 1 μM
Description: Combination studies were performed with 10 or 100 nM venetoclax or 300 and 1000 nM S63846. Cell viability was assessed by annexin V/PI using flow cytometry and changes in protein expression by immunoblotting.

Molecule | Grade 3/4 AEs: Fatigue ([1]; Table 1) | Grade 3/4 AEs: Thrombocytopenia ([1]; Table 1) | Toxicities ≥ Grade 3: Anemia ([1]; r/r PTCL, Table 2) | Toxicities ≥ Grade 3: Asthenia/Fatigue ([1]; r/r PTCL, Table 2) | Toxicities ≥ Grade 3: Pyrexia ([1]; r/r PTCL, Table 2) | Toxicities ≥ Grade 3: Thrombocytopenia ([1]; r/r PTCL, Table 2) | ORR [1] | CR [1] | DOR [1] | IL-4/CD40L induced Mcl-1 and Bcl-XL expression (Primary CLL cells) | Toxicities ≥ Grade 3: Neutropenia ([1]; r/r PTCL, Table 2) | other results
O=C(/C=C/c1cccc(S(=O)(=O)Nc2ccccc2)c1)NO [Belinostat] | Fatigue: 5% | Thrombocytopenia: 7% | 11% | 5% | 2% | 7% | ORR: 26% | (11% CR) | DOR: 8.4 months | – | – | Grade 3/4 AEs: Anemia ([1]; Table 1): Anemia: 11%; Toxicities ≥ Grade 3: Infection ([1]; r/r PTCL, Table 2): 8.5%^; ORR ([1]; listed as belinostat): approximately 25%
NC(=O)c1cnc(N[C@@H]2CCCC[C@@H]2N)nc1Nc1cccc(-n2nccn2)c1 [PRT062607, reference compound] | – | – | – | – | – | – | – | – | – | significantly reduced | – | –
C#CCC(Cc1cnc2nc(N)nc(N)c2n1)c1ccc(C(=O)N[C@@H](CCC(=O)O)C(=O)O)cc1 (some centres unmarked) [Pralatrexate] | Fatigue: 7% | Thrombocytopenia: 33% | 17% | 8% | 2% | 33% | ORR: 27% | (6% CR) | DOR: 9.4 months | – | 20% | Grade 3/4 AEs: Anemia ([1]; Table 1): Anemia: 17%; Grade 3/4 AEs: Mucositis ([1]; Table 1): Mucositis: 21%; Grade 3/4 AEs: Neutropenia ([1]; Table 1): Neutropenia: 20%; Toxicities ≥ Grade 3: Leukopenia ([1]; r/r PTCL, Table 2): 7%; Toxicities ≥ Grade 3: Mucositis ([1]; r/r PTCL, Table 2): 23%; Toxicities ≥ Grade 3: Sepsis ([1]; r/r PTCL, Table 2): 5%; ORR ([1]; listed as pralatrexate): approximately 25%
C/C=C1\NC(=O)[C@H]2CSSCC/C=C/[C@H](CC(=O)N[C@H](C(C)C)C(=O)N2)OC(=O)[C@H](C(C)C)NC1=O [Romidepsin] | Fatigue: 13% | Thrombocytopenia: 21% | 11-28% | 8-19% | 6-17% | 24-36% | – | – | – | – | 20-47% | Grade 3/4 AEs: Nausea ([1]; Table 1): Nausea: 4%; Toxicities ≥ Grade 3: Infection ([1]; r/r PTCL, Table 2): 19%; Toxicities ≥ Grade 3: Leukopenia ([1]; r/r PTCL, Table 2): 6-45%; Toxicities ≥ Grade 3: Sepsis ([1]; r/r PTCL, Table 2): 5%
Cc1c(-c2c(-c3ccc(F)o3)sc3ncnc(O[C@H](Cc4ccccc4OCc4ccnn4CC(F)(F)F)C(=O)O)c23)ccc(OCCN2CCN(C)CC2)c1Cl [S63845, reference compound] | – | – | – | – | – | – | – | – | – | – | – | synergy with BCR kinase inhibitors including cerdulatinib, CLL cell death (Primary CLL cells; CLL cells): synergized
c1cn2cc(-c3ccc4cn[nH]c4c3)nc(Nc3ccc(N4CCOCC4)cc3)c2n1 [entospletinib, reference compound] | – | – | – | – | – | – | – | – | – | significantly reduced | – | –
CC[C@H](Nc1ncnc2[nH]cnc12)c1nc2cccc(F)c2c(=O)n1-c1ccccc1 [idelalisib, reference compound] | – | – | – | – | – | – | – | – | – | significantly reduced | – | –
Brentuximab | – | Thrombocytopenia: 10% | 2% | 4% | 2% | 10% | ORR: 86% | (57% CR) | DOR: 12.6 months | – | 21% | Grade 3/4 AEs: Neutropenia ([1]; Table 1): Neutropenia: 21%; Grade 3/4 AEs: Peripheral sensory neuropathy ([1]; Table 1): Peripheral sensory neuropathy: 10%; Toxicities ≥ Grade 3: Diarrhea/Colitis ([1]; r/r PTCL, Table 2): 3%

Reference: US11266645B2, “Methods for treating lymphoma” (Alexion Pharmaceuticals, Inc., priority 2018, dated 2022)
